From US10765114B2, “4-amino-6-(pyridyl and 2-substitutedphenyl)-picolinates and 6-amino-2-(pyridyl and 2-substitutedphenyl)-pyrimidine-4-carboxylates and their use as herbicides” (Dow AgroSciences LLC, priority 2013, dated 2020)
Where two headings read alike, the source gives them in different places.

What was measured:
[1] = system: Key Broadleaf Weed and Crop Species; experiment: Post-Emergent Test II (Table 5); type: in vivo; conditions: post-emergence, 336 h; for pest or weed control at 70 g/ha: application rate 70 (kg ai/ha; footnote: g ai/ha); for pest or weed control at 140 g/ha: application rate 140 (kg ai/ha; footnote: g ai/ha)
In short: (§1)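 Seedlings are raised 7-21 days in Metro-Mix 360 (pH 6.0-6.8) under greenhouse conditions, then sprayed at the first or second true leaf stage. Application is 187 L/ha, with serial rates down to 1/16× of the highest. Plants are subirrigated, and percent injury is rated visually after 14 days.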

[2] = system: Key Grass and Sedge Weeds as well as Grass Crops; experiment: Post-Emergent Test II (Table 6); type: in vivo; conditions: post-emergence, 336 h, 14 days after application; for pest or weed control at 70 g/ha: 70 g ai/ha; for pest or weed control at 140 g/ha: 140 g ai/ha
In short: as §1

[3] = Euphorbia heterophylla, EPHHL: wild poinsettia (Euphorbia heterophylla), read-out: Visual Growth Reduction (%) 14 Days After Application EPHHL
[4] = Viola tricolor, VIOTR: wild pansy (Viola tricolor), read-out: Visual Growth Reduction (%) 14 Days After Application VIOTR
[5] = CYPSS, read-out: Visual Growth Reduction (%) 14 Days After Application CYPSS
[6] = DIGSA: crabgrass (Digitaria sanguinalis), read-out: Visual Growth Reduction (%) 14 Days After Application DIGSA
[7] = ECHSS, read-out: Visual Growth Reduction (%) 14 Days After Application ECHSS
[8] = ORYSS (crop), read-out: Visual Growth Reduction (%) 14 Days After Application ORYSS
[9] = SETFA: giant foxtail (Setaria faberi), read-out: Visual Growth Reduction (%) 14 Days After Application SETFA
[10] = SORVU: grain sorghum (Sorghum vulgare), read-out: Visual Growth Reduction (%) 14 Days After Application SORVU
[11] = TRZSS (crop), read-out: Visual Growth Reduction (%) 14 Days After Application TRZSS
[12] = ZEAMX: maize, corn (Zea mays), read-out: Visual Growth Reduction (%) 14 Days After Application ZEAMX

| SMILES | melting point [°C] | pest or weed control at 140 g/ha [1, 3] [%] | pest or weed control at 140 g/ha [1, 4] [%] | pest or weed control at 140 g/ha [2, 5] [%] | pest or weed control at 140 g/ha [2, 6] [%] | pest or weed control at 140 g/ha [2, 7] [%] | pest or weed control at 140 g/ha [2, 8] [%] | pest or weed control at 140 g/ha [2, 9] [%] | pest or weed control at 140 g/ha [2, 10] [%] | pest or weed control at 140 g/ha [2, 11] [%] | pest or weed control at 140 g/ha [2, 12] [%] | also measured |
| --- | --- | --- | --- | --- | --- | --- | --- | --- | --- | --- | --- | --- |
| CCc1c(-c2cc(N)c(Cl)c(C(=O)OC)n2)ccc(Cl)c1F [Compound 21] | 140 to 143 | – | – | – | – | – | – | – | – | – | – | – |
| COC(=O)c1nc(-c2ccc(C(F)(F)F)nc2)nc(N)c1Cl [Compound 82, methyl 6-amino-5-chloro-2-(6-(trifluoromethyl)pyridin-3-yl)pyrimidine-4-carboxylate] | 179 to 181 | 0 to 29 | 0 to 29 | 0 to 29 | 0 to 29 | 0 to 29 | 0 to 29 | 0 to 29 | 0 to 29 | 0 to 29 | 0 to 29 | pest or weed control at 70 g/ha [1, 3]: 0 to 29%; pest or weed control at 70 g/ha [1, 4]: 0 to 29%; pest or weed control at 70 g/ha [2, 5]: 0 to 29%; pest or weed control at 70 g/ha [2, 6]: 0 to 29%; pest or weed control at 70 g/ha [2, 7]: 0 to 29%; pest or weed control at 70 g/ha [2, 8]: 0 to 29%; pest or weed control at 70 g/ha [2, 9]: 0 to 29%; pest or weed control at 70 g/ha [2, 10]: 0 to 29%; pest or weed control at 70 g/ha [2, 11]: 0 to 29%; pest or weed control at 70 g/ha [2, 12]: 0 to 29% |
| COC(=O)c1nc(-c2ccc(C(F)F)nc2)c(F)c(N)c1Cl [Compound 34, methyl 4-amino-5-chloro-6′-(difluoromethyl)-3-fluoro-2,3′-bipyridine-6-carboxylate] | 144 to 146 | – | – | – | – | – | – | – | – | – | – | – |
| Nc1c(F)c(-c2ccc(C(F)(F)F)nc2F)nc(C(=O)O)c1Cl [Compound 26] | – | 0 to 29 | 0 to 29 | 0 to 29 | 0 to 29 | 0 to 29 | 0 to 29 | 0 to 29 | 0 to 29 | 0 to 29 | 0 to 29 | pest or weed control at 140 g/ha ([1]; Abutilon theophrasti, ABUTH: velvetleaf (Abutilon theophrasti), read-out: Visual Growth Reduction (%) 14 Days After Application ABUTH): 0 to 29%; pest or weed control at 140 g/ha ([1]; Amaranthus retroflexus, AMARE: redroot pigweed (Amaranthus retroflexus), read-out: Visual Growth Reduction (%) 14 Days After Application AMARE): 0 to 29%; pest or weed control at 140 g/ha ([1]; Brassica napus, BRSSS: oilseed rape, canola (Brassica napus), read-out: Visual Growth Reduction (%) 14 Days After Application BRSSS): 0 to 29%; pest or weed control at 140 g/ha ([1]; Chenopodium album, CHEAL: lambsquarters (Chenopodium album), read-out: Visual Growth Reduction (%) 14 Days After Application CHEAL): 0 to 29%; pest or weed control at 140 g/ha ([1]; Helianthus annuus, HELAN: sunflower (Helianthus annuus), read-out: Visual Growth Reduction (%) 14 Days After Application HELAN): 45 to 59% |
